The values below come from ChEMBL document CHEMBL5329177, “De novo design of a stapled peptide targeting SARS-CoV-2 spike protein receptor-binding domain” (RSC Med Chem, 2023).

Starred links: 1 amine or outer side, 2 acyl side, 3 side chain; linkers in the order of their positions; H or OH if unused. Positions of bridges follow the written chain, without caps; N, C: chain ends. Non-standard residues stand in square brackets, D forms with d. Residues, ends and D or L forms follow the SMILES beside them. X1 = C[C@@](CC=[*:3])(N[*:1])C(=O)[*:2]

The data set deals with Vero C1008. Briefly: Cytotoxicity against African green monkey Vero E6 cells assessed as inhibition of cell growth measured after 48 hrs by MTT assay. Type of data set: toxicity, cell-based. Particulars: chlorocebus sabaeus, vero c1008, 48 h, dose 0.05-50 µM.

Turning to `CSCC[C@@H]1NC(=O)[C@H](CC(N)=O)NC(=O)[C@@H]2CC(=O)NCCCC[C@H](NC(=O)[C@H](Cc3c[nH]c4ccccc34)NC(=O)[C@@H](NC(=O)[C@H](CCCCN)NC(=O)[C@H](Cc3ccc(O)cc3)NC(=O)[C@H](CC(C)C)NC(=O)[C@H](Cc3c[nH]c4ccccc34)NC(=O)[C@H](CCC(=O)O)NC(=O)[C@@H](NC(=O)CNC(C)=O)[C@@H](C)O)C(C)C)C(=O)N[C@@H](C)C(=O)N[C@@H](Cc3ccccc3)C(=O)N[C@@](C)(C/C=C/C[C@@](C)(C(=O)O)NC1=O)C(=O)N2` (Ac-GTEWLYKVWKAF[X1]DNM[X1]-OH; lactam 10-14; staple (E) 13-17), the Activity result is recorded as “Dose-Dependent Effect”.
